Where “and” joins values, the source holds several entries; their conditions need not be identical. Equal entries are not always repeated.
Test system: 454973-116-R2-J3-PDC spheroids, percent test/control viability
Experiment: Anticancer human tumor 454973-116-R2-J3-PDC patient-derived pancreatic carcinoma cell line growth inhibition [CLK]
Conditions: spheroids with HUVEC and MSC; for viability, T/C: stronger effect = lower value; active = viability on the fitted dose curve at most 10% of control; inactive = the rest
Outline: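 Patient-derived tumor cells grown as complex spheroids with HUVEC endothelial cells and mesenchymal stem cells, treated with drug combinations. Concentrations descend in half-log steps from near clinical Cmax, or from 10 microM if Cmax unknown.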

[1] = curve of first compound, second compound 0.0316 µM
[2] = curve of first compound, second compound 0.1 µM
[3] = curve of first compound, second compound 0.316 µM
[4] = curve of first compound, second compound 1 µM
[5] = curve of first compound, second compound 3.16 µM
[6] = curve of first compound, second compound 10 µM
[7] = second compound 0.0316 µM, first compound 0.000949 µM
[8] = second compound 0.0316 µM, first compound 0.003 µM
[9] = second compound 0.0316 µM, first compound 0.00949 µM
[10] = second compound 0.0316 µM, first compound 0.03 µM
[11] = second compound 0.0316 µM, first compound 0.0949 µM
[12] = second compound 0.0316 µM, first compound 0.3 µM
[13] = second compound 0.1 µM, first compound 0.000949 µM
[14] = second compound 0.1 µM, first compound 0.003 µM
[15] = second compound 0.1 µM, first compound 0.00949 µM
[16] = second compound 0.1 µM, first compound 0.03 µM
[17] = second compound 0.1 µM, first compound 0.0949 µM
[18] = second compound 0.1 µM, first compound 0.3 µM
[19] = second compound 0.316 µM, first compound 0.000949 µM
[20] = second compound 0.316 µM, first compound 0.003 µM
[21] = second compound 0.316 µM, first compound 0.00949 µM
[22] = second compound 0.316 µM, first compound 0.03 µM
[23] = second compound 0.316 µM, first compound 0.0949 µM
[24] = second compound 0.316 µM, first compound 0.3 µM
[25] = second compound 1 µM, first compound 0.000949 µM
[26] = second compound 1 µM, first compound 0.003 µM
[27] = second compound 1 µM, first compound 0.00949 µM
[28] = second compound 1 µM, first compound 0.03 µM
[29] = second compound 1 µM, first compound 0.0949 µM
[30] = second compound 1 µM, first compound 0.3 µM
[31] = second compound 3.16 µM, first compound 0.000949 µM
[32] = second compound 3.16 µM, first compound 0.003 µM
[33] = second compound 3.16 µM, first compound 0.00949 µM
[34] = second compound 3.16 µM, first compound 0.03 µM
[35] = second compound 3.16 µM, first compound 0.0949 µM
[36] = second compound 3.16 µM, first compound 0.3 µM
[37] = second compound 10 µM, first compound 0.000949 µM
[38] = second compound 10 µM, first compound 0.003 µM
[39] = second compound 10 µM, first compound 0.00949 µM
[40] = second compound 10 µM, first compound 0.03 µM
[41] = second compound 10 µM, first compound 0.0949 µM
[42] = second compound 10 µM, first compound 0.3 µM
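Note: spheroids exposed to compounds for 7 days before readout.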

C=CC(=O)Nc1cc(Nc2nccc(-c3cn(C)c4ccccc34)n2)c(OC)cc1N(C)CCN(C)C + CNC(=O)c1ccc(Nc2nc(OC3CCCC3)c3c(-c4ccc5nc(C)oc5c4)c[nH]c3n2)c(OC)c1
> 300 nM: IC50 [1] | IC50 [2]
inactive: viability, T/C [7] 106% | viability, T/C [8] 108% | viability, T/C [9] 92.5% | viability, T/C [10] 107% | viability, T/C [11] 104% | viability, T/C [12] 101% | viability, T/C [13] 95.9% | viability, T/C [14] 106% | viability, T/C [15] 90.7% | viability, T/C [16] 80.9% | viability, T/C [17] 69.7% | viability, T/C [18] 61% | viability, T/C [19] 43.8% | viability, T/C [20] 36.4% | viability, T/C [21] 30.5% | viability, T/C [22] 34.8% | viability, T/C [23] 36.4% | viability, T/C [24] 32.7% | viability, T/C [25] 27.9% | viability, T/C [26] 30.9% | viability, T/C [27] 30.5% | viability, T/C [28] 29.8% | viability, T/C [29] 34.5% | viability, T/C [30] 33.9% | viability, T/C [31] 29.9% | viability, T/C [32] 28.3% | viability, T/C [33] 26.7% | viability, T/C [34] 27.8% | viability, T/C [35] 31.1% | viability, T/C [36] 22.1% | viability, T/C [37] 33.9% | viability, T/C [38] 24% | viability, T/C [39] 21.9% | viability, T/C [40] 25.4% | viability, T/C [41] 27.9% | viability, T/C [42] 20.4%
< 0.949 nM: IC50 [3] | IC50 [4] | IC50 [5] | IC50 [6]

C=CC(=O)N1CCN(c2nc(=O)n(-c3c(C)ccnc3C(C)C)c3nc(-c4c(O)cccc4F)c(F)cc23)C(C)C1 (stereo not given)
inactive: viability, T/C (compound 0.0316 µM) 107% and 99.3% | viability, T/C (compound 0.1 µM) 107% and 106% | viability, T/C (compound 0.316 µM) 107% and 105% | viability, T/C (compound 1 µM) 110% and 97.4% | viability, T/C (compound 3.16 µM) 124% and 116% | viability, T/C (compound 10 µM) 124% and 118%
> 10000 nM: IC50 (curve of compound)

C=CC(=O)Nc1cc(Nc2nccc(-c3cn(C)c4ccccc34)n2)c(OC)cc1N(C)CCN(C)C + CN1CCN(c2cc(C(=O)Nc3cc4cc(-c5cnn(C)c5)ccc4cn3)ccn2)CC1
active: viability, T/C [19] 1.85% | viability, T/C [20] 4.04% | viability, T/C [21] 1.97% | viability, T/C [22] 3.67% | viability, T/C [23] 1.83% | viability, T/C [24] 1.5% | viability, T/C [25] 0.13% | viability, T/C [26] 0.14% | viability, T/C [27] 0.14% | viability, T/C [28] 0.1% | viability, T/C [29] 0.12% | viability, T/C [30] 0.12% | viability, T/C [31] 0.15% | viability, T/C [32] 0.21% | viability, T/C [33] 0.2% | viability, T/C [34] 0.2% | viability, T/C [35] 1.74% | viability, T/C [36] 0.35% | viability, T/C [37] 0.31% | viability, T/C [38] 0.26% | viability, T/C [39] 0.21% | viability, T/C [40] 0.29% | viability, T/C [41] 2.12% | viability, T/C [42] 2.07%
< 0.949 nM: IC50 [3] | IC50 [4] | IC50 [5] | IC50 [6]
> 300 nM: IC50 [1] | IC50 [2]
inactive: viability, T/C [7] 95.6% | viability, T/C [8] 107% | viability, T/C [9] 96.8% | viability, T/C [10] 104% | viability, T/C [11] 102% | viability, T/C [12] 98.3% | viability, T/C [13] 72.8% | viability, T/C [14] 76.6% | viability, T/C [15] 77.1% | viability, T/C [16] 77.1% | viability, T/C [17] 79% | viability, T/C [18] 72%

C=CC(=O)Nc1cc(Nc2nccc(-c3cn(C)c4ccccc34)n2)c(OC)cc1N(C)CCN(C)C
> 300 nM: IC50 (curve of compound)
inactive: viability, T/C (compound 0.000949 µM) 104% and 111% | viability, T/C (compound 0.003 µM) 107% and 98.9% | viability, T/C (compound 0.00949 µM) 97.8% and 95% | viability, T/C (compound 0.03 µM) 105% and 108% | viability, T/C (compound 0.0949 µM) 115% and 111% | viability, T/C (compound 0.3 µM) 109% and 100%

CC1(C)CCC(CN2CCN(c3ccc(C(=O)NS(=O)(=O)c4ccc(NCC5CCOCC5)c([N+](=O)[O-])c4)c(Oc4cnc5[nH]ccc5c4)c3)CC2)=C(c2ccc(Cl)cc2)C1
inactive: viability, T/C (compound 0.0316 µM) 101% and 99.6% | viability, T/C (compound 0.1 µM) 102% and 95.9% | viability, T/C (compound 0.316 µM) 113% and 106% | viability, T/C (compound 1 µM) 106% and 102% | viability, T/C (compound 3.16 µM) 119% and 111% | viability, T/C (compound 10 µM) 25.8% and 21.3%
7150 nM and 6670 nM: IC50 (curve of compound)
